Assay [1] relates to SK-BR-3. The assay is described as follows: LDH release per cell after 24 h with 50 mM of compound in SKBr3 cell line. The assay is classed as functional, Homo sapiens. (Release of lactate dehydrogenase indicates damage to the cell membrane.)
The subject of assay [2] is SW480. Kind of assay: LDH release per cell after 24 h with 50 mM of compound in SW480 cell line. Format: functional, Homo sapiens.
Assay [3] concerns F2000. Kind of assay: LDH release per cell after 24 h with 50mM of compound F2000 fibroblasts. Format: functional, Homo sapiens.
In assay [4] the test system is SW480. Kind of assay: Decrease in cell number against human colon carcinoma SW480 cell line at 100 mM. Also on record: scale not given: the % may be the effect or the level left. Format: functional.
The test system of assay [5] is SW480. Kind of assay: Decrease in cell number against human colon carcinoma SW480 cell line at 50 mM. Details: scale not given: the % may be the effect or the level left. The assay is classed as functional.
Assay [6] has as its system SW480. Kind of assay: Decrease in intracellular GSH levels at 50 mM expressed in […] cell line. The assay is classed as functional, Homo sapiens. Details: scale not given: the % may be the effect or the level left.
The test system of assay [7] is SW480. The assay is described as follows: Increase in intracellular GSH levels at 10mM expressed in […] cell line. Format: functional, cell-based. As to conditions: Homo sapiens.
Assay [8] relates to SW480. The assay is described as follows: Increase in intracellular GSH levels at 50 mM expressed in […] cell line. The assay is classed as functional, cell-based. The note with it: Homo sapiens.

Each structure is given as a SMILES string. Calls of active or inactive are those of the source. No cut-off for these calls is given here. Where only a bound is given, the exact number is not on record here.

Take `CC(C)(C)OC(=O)C1(C)CCC=[N+]1[O-]` (configuration not stated): the Activity in assay [1] is 720%; in assay [2], 1280%; in assay [3], 670%; in assay [4], above 90%; in assay [5] it was 10%.

Turning to `CCCOC(=O)C1(C)CCC=[N+]1[O-]` (configuration not stated), the Activity is 60% in assay [1]; 91% in assay [2]; 105% in assay [3]; 38% in assay [6]; below 60% in assay [4]; 10% in assay [5]. Besides, the outcome in assay [7] was Active.

As to `CC(C)OC(=O)C1(C)CCC=[N+]1[O-]` (configuration not stated), the Activity is 54% in assay [1]; 78% in assay [2]; 84% in assay [3]; below 60% in assay [4]; 10% in assay [5]. Moreover, the outcome in assay [7] and in assay [8] was Active.

Regarding `CCCCOC(=O)C1(C)CCC=[N+]1[O-]` (configuration not stated), the Activity in assay [4] was above 90%; in assay [5] it was 10%.

Turning to `CCC(C)OC(=O)C1(C)CCC=[N+]1[O-]` (configuration not stated), the Activity in assay [1] is 101%; in assay [2], 1404%; in assay [3], 1211%; in assay [6] it was 67%; in assay [4], above 90%; in assay [5] it was 10%.

Source of the values: ChEMBL document CHEMBL1149405, “Cytotoxicity of novel derivatives of the spin trap EMPO” (2006).
